This note sets out measurements from ChEMBL document CHEMBL1129077 (J Med Chem, 1996).

The nature of data set [1]: The effect on the Cooperativity of Resiniferatoxin binding, as Quantitated by the Hill Coefficients.
Data set [2] addresses T1, Transient receptor potential cation channel subfamily V member 1 (Rattus norvegicus, UniProt O35433). Briefly: Displacement of [3H]RTX from Vanilloid receptor in Rat spinal cord membranes. The format is cell membranes, Membrane.
For data set [3], the target named is T2, Transient receptor potential cation channel subfamily V member 1 (Homo sapiens, UniProt Q8NER1). Briefly: Effect on cooperativity of Resiniferatoxin (RTX) binding (Hill coefficient). It counts as functional.
Data set [4] deals with T2, Transient receptor potential cation channel subfamily V member 1. Briefly: Inhibitory constant for RTX binding to human spinal cord. The format is functional, tissue-based.
In data set [5] the test system is Rattus norvegicus. Briefly: Desensitisation against RTX-induced ear edema formation 24 hr r post-administration. The format is functional.
For data set [6], the target named is T1, Transient receptor potential cation channel subfamily V member 1. Briefly: Inhibitory constant for RTX binding to rat spinal cord. It counts as functional.
Data set [7] concerns the target T2, Transient receptor potential cation channel subfamily V member 1. Briefly: Inhibition of [3H]- RTX binding to Vanilloid receptors from human spinal cord.
The target in data set [8] is T1, Transient receptor potential cation channel subfamily V member 1. Briefly: Inhibition of [3H]- RTX binding to vanilloid receptor of rat urinary bladder. It counts as functional.
For data set [9] the target is unchanged. Briefly: Displacement of [3H]RTX binding from Vanilloid receptor of rat dorsal Root Ganglion (DRG) membranes. It counts as cell membranes, Membrane. Background: Displacement assays read how much labelled ligand stays bound in the presence of the test substance.

T1 sequence (O35433 whole entry): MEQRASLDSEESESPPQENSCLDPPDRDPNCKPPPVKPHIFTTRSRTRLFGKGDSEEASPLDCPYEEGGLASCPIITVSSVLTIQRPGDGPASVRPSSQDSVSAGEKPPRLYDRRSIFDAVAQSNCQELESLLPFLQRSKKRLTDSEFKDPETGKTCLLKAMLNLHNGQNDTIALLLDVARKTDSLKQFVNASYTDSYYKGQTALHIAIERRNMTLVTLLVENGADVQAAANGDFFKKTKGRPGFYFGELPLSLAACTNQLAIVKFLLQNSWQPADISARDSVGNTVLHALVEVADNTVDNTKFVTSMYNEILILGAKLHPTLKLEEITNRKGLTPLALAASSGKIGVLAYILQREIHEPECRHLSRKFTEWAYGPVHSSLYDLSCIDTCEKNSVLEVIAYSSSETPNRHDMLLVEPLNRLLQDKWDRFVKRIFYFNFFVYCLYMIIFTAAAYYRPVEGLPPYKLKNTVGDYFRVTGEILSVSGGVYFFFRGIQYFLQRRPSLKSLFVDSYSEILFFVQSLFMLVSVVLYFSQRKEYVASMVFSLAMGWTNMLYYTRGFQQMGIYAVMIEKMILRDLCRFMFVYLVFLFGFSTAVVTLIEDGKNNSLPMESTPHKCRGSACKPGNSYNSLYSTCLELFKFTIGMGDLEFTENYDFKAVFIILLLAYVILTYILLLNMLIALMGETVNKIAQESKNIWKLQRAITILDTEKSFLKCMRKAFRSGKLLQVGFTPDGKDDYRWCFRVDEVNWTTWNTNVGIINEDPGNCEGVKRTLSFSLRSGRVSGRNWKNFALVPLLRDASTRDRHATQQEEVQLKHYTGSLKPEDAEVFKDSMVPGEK
T2 sequence (Q8NER1 whole entry): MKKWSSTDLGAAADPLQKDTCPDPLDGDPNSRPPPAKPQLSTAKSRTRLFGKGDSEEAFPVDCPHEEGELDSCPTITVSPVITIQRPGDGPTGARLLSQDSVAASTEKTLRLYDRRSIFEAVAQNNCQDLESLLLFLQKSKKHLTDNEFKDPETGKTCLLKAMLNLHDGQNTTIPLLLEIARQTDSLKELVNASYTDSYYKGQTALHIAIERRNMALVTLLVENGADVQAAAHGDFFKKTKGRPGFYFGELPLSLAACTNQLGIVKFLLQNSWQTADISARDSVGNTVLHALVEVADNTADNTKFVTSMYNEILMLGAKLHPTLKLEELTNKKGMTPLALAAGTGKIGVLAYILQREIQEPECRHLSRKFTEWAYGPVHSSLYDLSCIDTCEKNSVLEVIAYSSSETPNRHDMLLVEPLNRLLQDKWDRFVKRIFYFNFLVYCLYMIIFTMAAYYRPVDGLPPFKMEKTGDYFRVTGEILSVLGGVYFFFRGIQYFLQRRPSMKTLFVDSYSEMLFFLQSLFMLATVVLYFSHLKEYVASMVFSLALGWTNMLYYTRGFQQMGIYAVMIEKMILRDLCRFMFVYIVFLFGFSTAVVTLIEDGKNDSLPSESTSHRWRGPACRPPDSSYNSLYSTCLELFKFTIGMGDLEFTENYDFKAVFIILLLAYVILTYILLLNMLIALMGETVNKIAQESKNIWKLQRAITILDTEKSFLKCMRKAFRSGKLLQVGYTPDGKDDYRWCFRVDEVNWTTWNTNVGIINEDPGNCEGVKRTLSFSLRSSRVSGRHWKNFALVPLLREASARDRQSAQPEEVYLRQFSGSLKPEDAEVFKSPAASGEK

A word on the Hill coefficient: it is a measure of the steepness of the concentration-response curve. What is called Ki is a dissociation constant, usually derived from enzyme kinetics or from competition with a known ligand. `C=C(C)[C@]12C[C@@H](C)[C@@]34O[C@](Cc5ccccc5)(O[C@@H]1[C@@H]3C=C(COC(=O)Cc1ccc(O)c(OC)c1)C[C@]1(O)C(=O)C(C)=CC41)O2` (single isomer, unassigned) [RESINIFERATOXIN]: the Hill coefficient in [1] was determined as 2.3. This compound also registered a Ki in data set [2] of 0.02 nM.
The compound `COc1cc(CC(=O)OCC2=C[C@H]3[C@@H]4C(C)(C)[C@]4(OC(C)=O)[C@H](OC(=O)Cc4ccccc4)[C@@H](C)[C@]3(O)[C@@H]3C=C(C)[C@H](O)[C@@]3(O)C2)ccc1O` registered a Ki in [2] of over 10000 nM.
In data set [3], `COc1cc(CC(=O)OCC2=C[C@H]3[C@@H]4C(C)(C)[C@]4(OC(=O)Cc4ccccc4)[C@H](OC(=O)Cc4ccccc4)[C@@H](C)[C@]3(O)[C@@H]3C=C(C)C(=O)[C@@]3(O)C2)ccc1O` displayed a Hill coefficient of 1.3. The compound further displayed a Ki in data set [2] of 300 nM.
For `COc1cc(CNC(=O)CCCC/C=C/C(C)C)ccc1O`, the Hill coefficient in data set [3] was 2.
Compound `COc1cc(CC(=O)OCC2=C[C@H]3[C@@H]4C(C)(C)[C@]4(OC(C)=O)[C@H](OC(=O)CC4CCCCC4)[C@@H](C)[C@]3(O)[C@@H]3C=C(C)C(=O)[C@@]3(O)C2)ccc1O` came in with a Hill coefficient in data set [3] of 1.1. In [2], this compound registered a Ki of 400 nM.
In the case of `COc1cc(CC(=O)OCC2=C[C@H]3[C@@H]4C(C)(C)[C@]4(OC(C)=O)[C@H](OC(=O)c4ccccc4)[C@@H](C)[C@]3(O)[C@@H]3C=C(C)C(=O)[C@@]3(O)C2)ccc1O`, in data set [3], the Hill coefficient was found to be 1.7. Besides, the Ki in data set [2] is 400 nM.
On the same counts, the results for `COc1cc(CC(=O)OCC2=C[C@H]3[C@@H]4C(C)(C)[C@]4(OC(C)=O)[C@H](OC(=O)c4ccc(N=[N+]=[N-])cc4)[C@@H](C)[C@]3(O)[C@@H]3C=C(C)C(=O)[C@@]3(O)C2)ccc1O` are 1.5 and 200 nM.
Regarding `COc1cc(CC(=O)OCC2=C[C@H]3[C@@H]4C(C)(C)[C@]4(OC(C)=O)[C@H](OC(=O)Cc4ccccc4)[C@@H](C)[C@]3(O)[C@@H]3C=C(C)C(=O)[C@@]3(O)C2)ccc1OC(C)=O`, in [3], the Hill coefficient was 1. This compound registered an inhibition constant (Ki) in data set [2] of 1700 nM.
The compound `COc1cc(CC(=O)OCC2=C[C@H]3[C@@H]4C(C)(C)[C@]4(OC(C)=O)[C@H](OC(=O)Cc4ccc(N=[N+]=[N-])cc4)[C@@H](C)[C@]3(O)[C@@H]3C=C(C)C(=O)[C@@]3(O)C2)ccc1O` returned a Hill coefficient in data set [3] of 1.4. For the same compound, in data set [2], the affinity corresponds to a Ki of 200 nM.
In turn, `COc1cc(CC(=O)OCC2=C[C@H]3[C@@H]4C(C)(C)[C@]4(OC(=O)Cc4ccccc4)C(=O)[C@@H](C)[C@]3(O)[C@@H]3C=C(C)C(=O)[C@@]3(O)C2)ccc1O` yielded a Hill coefficient in data set [3] of 0.9. In data set [2], this compound displayed a Ki of 1300 nM.
As a reminder, the ED50 is the dose that gives a 50% effect, or the effect in half of the subjects. On to `COc1cc(CC(=O)OCC2=C[C@H]3[C@@H]4C(C)(C)[C@]4(OC(C)=O)[C@H](OC(=O)Cc4ccccc4)[C@@H](C)[C@]3(O)[C@@H]3C=C(C)C(=O)[C@@]3(O)C2)ccc1O`, for which the Ki in [4] came to 0.45 nM; in data set [6] it was 0.054 nM; in [7], 6400 nM; in data set [8], 2000 nM; in [9], 600 nM. The Hill coefficient in data set [3] is 1.1. The ED50 in [5] is 10 mg/kg.
`COc1cc(CC(=O)OCC2=C[C@H]3[C@@H]4C(C)(C)[C@]4(OC(C)=O)C(=O)[C@@H](C)[C@]3(O)[C@@H]3C=C(C)C(=O)[C@@]3(O)C2)ccc1O` returned an inhibition constant (Ki) in [2] of over 10000 nM.
In the case of `Oc1cc2c(cc1O)CN(C(=S)NCCc1ccc(Cl)cc1)CCC2` [CAPSAZEPINE], the Hill coefficient in [3] stood at 2.4. Affinity in data set [2] was put at a Ki of 1200 nM.
Compound `COc1cc(CC(=O)OCC2=C[C@H]3[C@@H]4C(C)(C)[C@]4(OC(C)=O)[C@H](OC(=O)C4CCCCC4)[C@@H](C)[C@]3(O)[C@@H]3C=C(C)C(=O)[C@@]3(O)C2)ccc1O` yielded a Hill coefficient in data set [3] of 1. The same compound registered an inhibition constant Ki in data set [2] of 2200 nM.
